# Tests used:
# Format in all cases: cell-based
# [1] = tested on: Normal human hair follicle dermal papilla cells (HFDPC); experiment: Follicle dermal papilla cell proliferation promotive action test (MTT); settings: 100 μmol/L, 4 days
# Procedure: Normal human hair follicle dermal papilla cells (HFDPC, derived from the parietal region of a person) were cultured using follicle dermal papilla cell growth medium (PCGM, available from TOYOBO CO., LTD.) containing 1% FCS and growth additives, and then the cells were collected by a trypsin treatment. The collected cells were diluted to a cell density of 1.0×10^4 cells/mL using Dulbecco's modified Eagle's medium (DMEM) containing 10% FBS, then seeded with 200 μL per well in a collagen-coated 96-well plate, and cultured for 3 days.
# After that, the medium was removed, 200 μL of the test sample (Sample 1, see Table 25 below for final concentration) dissolved in serum-free DMEM was added to each well, and culturing was further performed for 4 days. […] After the culturing was completed, the follicle dermal papilla cell proliferation promotive action was measured by MTT assay. […] The absorbance of this extract was measured at 570 nm giving the maximum absorption point of blue formazan. At the same time, the absorbance at a wavelength of 650 nm was measured as turbidity, and the difference between the two was determined as the production amount of blue formazan. From the measurement results, the follicle dermal papilla cell proliferation promotion rate (%) was calculated based on the following equation. […]
# [2] = tested on: Mouse macrophage cells (RAW264.7); experiment: Nitric oxide (NO) production suppressive action test; settings: RAW264.7, LPS 1 μg/mL, 48 hours
# Procedure: Mouse macrophage cells (RAW264.7) were cultured using Dulbecco's modified Eagle's medium (DMEM) containing 10% FBS, and then the cells were collected using a cell scraper. The collected cells were diluted with phenol red-free DMEM containing 10% FBS to a cell density of 3.0×10^6 cells/mL, then seeded with 100 μL per well in a 96-well plate, and cultured for 4 hours.
# After culturing, the medium was removed, 100 μL of the test sample (Sample 1, see Table 26 below for final concentration) dissolved in phenol red-free DMEM containing DMSO at a final concentration of 0.5% and 10% FBS was added to each well, 100 μL of lipopolysaccharide (LPS, final concentration 1 μg/mL, E. coli 0111:B4, available from DIFCO) dissolved in phenol red-free DMEM containing 10% FBS was added, and culturing was performed for 48 hours. As a control, the LPS process was performed in the same manner using, as substitute for the test sample solution, phenol red-free DMEM containing DMSO at a final concentration of 0.5% and 10% FBS to which no sample was added.
# The production amount of nitric oxide (NO) was measured using the amount of nitrite ions ([…]) as an index. After the culturing was completed, the same amount of Griess reagent (5 mass % phosphoric acid solution containing 1 mass % sulfanilamide and 0.1 mass % N-1-naphthyl ethylendiamine dihydrochloride) as the culture supernatant was added to the culture solution in each well and reacted for 10 minutes at room temperature. After the reaction, the absorbance at a wavelength of 540 nm was measured. The nitric oxide (NO) production suppression rate (%) was calculated by the following equation based on the nitric oxide (NO) production amount when no sample was added (control).
# Terms in the equation represent the following respective ones. • A: NO amount with test sample addition • B: NO amount […]
# [3] = tested on: Rat basophil leukemia cells (RBL-2H3); experiment: Hexosaminidase release suppressive action test; settings: 500 μmol/L; RBL-2H3, DNP-specific IgE / DNP-BSA
# Procedure: Rat basophil leukemia cells (RBL-2H3) were cultured using spinner modified Eagle's minimum essential medium (S-MEM) containing 15% FBS, and then the cells were collected by a trypsin treatment. The collected cells were diluted with S-MEM containing 15% FBS to a cell density of […], DNP-specific IgE was added to a final concentration of 0.5 μg/mL, and the cells were seeded with 100 μL per well in a 96-well plate and cultured overnight.
# After culturing, the medium was removed and the cells were washed twice with 100 μL of Shiraganian buffer solution. […]
# After the reaction was completed, 250 μL of 0.1 mol/L Na2CO3/NaHCO3 was added to each well, the absorbance at wavelengths of 415 nm and 650 nm was measured, and the value obtained by subtracting the absorbance at 650 nm from the absorbance at 415 nm was adopted as the corrected value. From the obtained measurement results, the hexosaminidase release suppression rate (%) was calculated using the following equation.
# Terms in the equation represent the following respective ones. • A: Absorbance at wavelength 415-650 nm without sample addition • B: Absorbance at wavelength 415-650 nm with test sample addition
SMILES,Follicle dermal papilla cell proliferation promotion rate [1] [%],NO production suppression rate ([2]; 31.2 μmol/L) [%],NO production suppression rate ([2]; 125 μmol/L) [%],NO production suppression rate ([2]; 500 μmol/L) [%],Hexosaminidase release suppression rate [3] [%]
"O=C(O)CCc1ccc(O)c(O)c1 [Sample 1, 3,4-Dihydroxyhydrocinnamic acid]",124.8,14.9,49.4,77.8,–
"O=C(O)CCc1ccc(O)cc1 [Sample 2, 3-(4-Hydroxyphenyl)propionic acid]",–,–,–,–,19.3

# Reference: patent publication US20240252456A1, “ORAL COMPOSITION, SKIN COSMETIC AND HAIR COSMETIC” (MARUZEN PHARMACEUTICALS CO., LTD., priority 2021, published 2024)
